In US20060281806A1, “Treatment and inhibition of disease conditions using flexible heteroarotinoids” (priority 2005, published 2006):
“Also recorded” adds a separate entry of the source.

Key:
[1] = tested on: OVCAR-3 xenograft tumors; assay: OVCAR-3 xenograft tumor animal model, tumor growth; type: in vivo, mouse; settings: 10 mg/kg/day by gavage, 5 days/week, 4 weeks; t-test on day 29
Description: Groups of 5 mice bearing OVCAR-3 xenografted tumors were gavaged daily with the indicated drugs in sesame oil (▪ closed square) or with sesame oil alone (∘ open circle). Tumor volumes were measured in 3 dimensions with calipers weekly. Each data point represents the average and standard error of the tumor volumes on the indicated treatment day relative to the tumor volume on day zero. Nu/nu mice were injected subcutaneously with one million OVCAR-3 cells and arbitrarily divided into five groups of six mice each. After three weeks of tumor growth, the animals were gavaged with sesame oil, 10 mg/kg/day 4-HPR, or the indicated Het five times per week for four weeks and the tumors were measured once per week. The tumor sizes were averaged and divided by the average size for each group on the day that treatment was initiated (day 0).
The OVCAR-3 cultures were maintained in RPMI media supplemented with 10% fetal bovine serum. All animal experimentation described in this manuscript was conducted in accord with accepted standards of humane animal care. Twenty-five female NU/NU CD-1 female mice (Charles Rivers Laboratories) were housed in a laminar flow room under sterile conditions at 83-85° F. The mice were quarantined for one week prior to the beginning of the study and were allowed access to autoclaved food (Purina 5001 mouse/rat sterilizable diet, St. Louis, Mo.) and water ad libitum. OVCAR-3 cells in log phase growth were harvested by trypsinization, resuspended in RPMI culture medium, and centrifuged at 3,000 rpm for 10 min. The pellets were resuspended in RPMI culture medium at a concentration of 7×10^6 cells/ml before implantation into mice. Animals were injected with 3.5×10^6 cells into the right scapular region with a 24-gauge needle/1 cc tuberculin syringe. Twenty-four hours after tumor implantation, animals were randomized into 5 groups of 5 animals each.
The Hets SHet50, SHetA2 and SHetA4 were synthesized and their receptor specificity determined as previously described (17,19). The 4-HPR compound was a gift from R.W. Johnson Pharmaceutical Research Institute, Raritan, N.J. All retinoids were dissolved in super refined sesame oil (Croda, Inc., Parsippany, N.J.) and stored at −80° C. Since the retinoids are light sensitive, all manipulations involving retinoids were performed under subdued lighting. […] Tumors were measured with calipers weekly, and tumor volumes were calculated using the formula: volume=length×width×height. Tumor growth was determined by the dividing the volume of the tumor at each weekly measurement by the volume on the first day of treatment. Animal weights and clinical signs of overall health status and cutaneous toxicities were recorded weekly.

[2] = tested on: ovarian carcinoma organotypic cultures; assay: Organotypic culture model of ovarian tumors; type: cell-based, human; settings: 1 μM retinoid in media; 3, 7 or 14 days
Description: FIG. 17. Retinoid effects on ovarian carcinoma organotypic cultures. Organotypic cultures of OVCAR-3 (A, B, E, F, I and J), Caov-3 (C and G), SK-OV-3 (D and H), and O2 (K and L) were grown in the absence (−, top row and K) or presence (+, middle row and I, J and L) of retinoid HetA4 at a concentration of 1 μM in the media. All sections were stained with H&E except for I, which was stained with PAS to detect glycoproteins and glandular differentiantion, and J, which was stained with the TUNEL assay to detect apoptosis. All magnifications are 40×.
To test our hypotheses, we evaluated the effects of clinically achievable concentrations of 4-HPR and Flex-Hets on growth, differentiation and apoptosis in ovarian tissue. A series of compounds with a variety of receptor activation profiles were evaluated. In order to evaluate therapeutic effects, we developed an organotypic culture model of ovarian tumors by growing established cell lines and primary cultures inside collagen gels. Monolayer cultures of cells are not accurate representations of in vivo tissue because they lack the types of interactions that cells have with other cells and with the extracellular matrix in vivo. These interactions are known to influence gene expression and thus the constitution and behavior of cells. In our organotypic model, the growth of tumor cells inside the collagen allows a representation of tumors that have invaded stromal tissue. In the presence of fibroblasts, established cell lines and primary cultures of ovarian cancer formed colonies inside the collagen, while normal or benign ovarian epithelial cells remained as single cells inside the collagen. Human ovarian cancer cell lines (OVCAR-3, Caov-3, SK-OV-3, A2780, UCI 101) and primary human cultures (borderline ovarian tumor (O1), serous papillary tumor (O2), benign ovarian cyst (O3)) were cultured inside and on top of a collagen gel seeded with 3T3 fibroblasts for one week. After further incubation in the presence or absence of 1 μM retinoid (media concentration) for 3, 7 or 14 days, cultures were fixed and sectioned for immunohistochemical analysis.

[3] = tested on: a variety of cell lines; settings: cited from earlier work
[4] = Alanine aminotransferase (ALT) activity in plasma of mice; type: in vivo, mouse; settings: end of treatment, 10 mg/kg/day by gavage
Description: At the end of the treatment period, blood was drawn from each animal. Plasma was separated by centrifugation and stored at −70° C. The activity of ALT was determined in aliquots of plasma by standard spectrophotometric enzymatic techniques which are based on the reduction of pyruvate by lactate dehydrogenase (28). The method measures NADH disappearance with time of incubation at 37° C. The activities are expressed as mm/L/min. Two different amounts of plasma were used in each assay to assure measurement of the maximum rate.

[5] = women after breast cancer surgery; 200 mg per day for five years versus placebo; cited from earlier work
[6] = tested on: HT-3 cervical carcinoma cell line; assay: In vitro cytotoxicity (SRB growth inhibition) assay, HT-3; type: cell-based, human; design: dose or concentration left out as unconfirmed; settings: 72 h
Description: (§1) The SHetA2, SHetA3, SHetA4, SHet50 and 9-cis-RA compounds were evaluated in 4 cervical carcinoma cell lines. The SiHa, CC-1 and C33a human cervical cell lines were maintained in Minimal Essential Media (MEM) containing Earle's salts and L-glutamine supplemented with nonessential amino acids, 1% sodium pyruvate, 10% fetal bovine serum (FBS) and antibiotic/antimycotic. The HT-3 cervical carcinoma cell line was cultured in McCoy's 5a medium supplemented with 10% FBS and antibiotic/antimycotic. Cells were inoculated into 96 well microtiter plates at densities of 1000 cells/well and incubated for 24 h prior to addition of drugs. Drugs were dissolved in dimethyl sulfoxide (DMSO) and diluted in complete medium, prior to addition to triplicate culture wells to achieve final concentrations of […]. Following drug addition, the plates were incubated for 72 h. The assay was terminated by the addition of cold TCA and the cells were stained with 0.4% sulforhodamine B (SRB) in 1% acetic acid. Bound stain was subsequently solubilized with 10 mM trizma base, and the absorbance was read on an automated plate reader at a wavelength of 560 nm. Growth inhibition was determined by dividing the average Optical Density (OD) of the triplicated treated cultures by the average OD of the triplicate control cultures treated with DMSO solvent only. This ratio was converted into a percentage by multiplying by 100. The potency (concentration required to induce half of the maximal activity—GI50) were derived from dose-response graphs generated with results from 3 to 5 individual experiments using GraphPad Software.

[7] = tested on: CC-1 human cervical cell line; assay: In vitro cytotoxicity (SRB growth inhibition) assay, CC-1; type: cell-based; design: dose or concentration left out as unconfirmed; settings: 72 h
Description: as §1

[8] = tested on: SiHa human cervical cell line; assay: In vitro cytotoxicity (SRB growth inhibition) assay, SiHa; type: cell-based; design: dose or concentration left out as unconfirmed; settings: 72 h
Description: as §1

[9] = tested on: human polycystic kidney disease cells; assay: 3-D gel culture model of polycystic kidney disease; type: cell-based; settings: 4μM, 3 weeks
Description: FIG. 21. Effects of Flex-Hets on formation of cysts in cultured polycystic kidney disease cells. A primary culture of polycystic kidney cells were grown inside a mixture of collagen I and matrigel and treated with prostaglandin E2 to induce cyst formation. Parallel cultures were treated with 10 micromolar SHetA3 and SHetA4.
The 3-D model of the PKD was developed as described here. Single-cell suspensions of the PCKD cell lines was re-suspended in a 4° C. solution mixture containing rat tail collagen I (Collaborative Biomedical Products, Bedford, Mass.), matrigel (Becton Dickinson) and MEM. The suspension was poured into Falcon cell culture inserts with transparent membranes containing 0.4 μm pores (Becton Dickinson, Franklin Lakes, N.J.) and placed at 37° C. Treatment of cultures was initiated after 1 day of growth and replenished with medium once in every two days. Drugs (Flex-Hets at 4 μM Conc.) and hormones (PGE2 at 25 ng/ml) were administered into the medium surrounding the insert. Untreated control cultures were grown in the same conditions as that of the treated cultures. Drug treatment was carried out for 3 weeks before their effects on growth and inhibition were evaluated.

[10] = tested on: C33a human cervical cell line; assay: In vitro cytotoxicity (SRB growth inhibition) assay, C33a; type: cell-based; design: dose or concentration left out as unconfirmed; settings: 72 h
Description: as §1

[11] = tested on: dorsal skin of female Skh hairless mice; assay: Topical irritancy; type: in vivo; settings: mouse, in vivo
Description: Female Skh hairless mice, 6-8 weeks old, were treated topically on the dorsal skin for 4 days over a 2-log concentration dose range with various compounds. Retinoic acid receptor-Hets were evaluated in A, while retinoic acid receptor-independent Flex-Hets were evaluated in B. Daily flaking and abrasion scores were combined to calculate a single cutaneous toxicity score for each mouse. Each treatment group consisted of 4 mice, and group averages were used to plot cutaneous toxicity against doses of the compounds.
Topical irritancy was evaluated according to published procedures (29). Briefly, female Skh hairless mice, 6-8 weeks old, were treated topically on the dorsal skin for 4 days over a 2-log concentration dose range with various compounds. Daily flaking and abrasion scores were combined to calculate a single cutaneous toxicity score for each mouse. Each treatment group consists of 4 mice, and group averages are used to plot cutaneous toxicity against dose of the retinoid compound.

[12] = biological assays of efficacy; cited from earlier work

| Structure (SMILES) | growth of xenograft tumors versus sesame oil control [1] | induction of apoptosis (TUNEL) in organotypic cultures [2] | concentration inducing differentiation (receptor-dependent) [3] [µM] | ALT Activity [4] [mm/liter/min] | ovarian cancers developed [5] | Efficacy: percent growth inhibition relative to the untreated control [6] [%] | Efficacy: percent growth inhibition relative to the untreated control [7] [%] | Efficacy: percent growth inhibition relative to the untreated control [8] [%] | formation of branched tubular structures (differentiated phenotype) [9] | cyst formation ([9]; PGE2 at 25 ng/ml) | Efficacy: percent growth inhibition relative to the untreated control [10] [%] | topical irritancy (cutaneous toxicity score) [11] | potency relative to RA [12] [fold] |
| --- | --- | --- | --- | --- | --- | --- | --- | --- | --- | --- | --- | --- | --- |
| CC1=C(/C=C/C(C)=C/C=C/C(C)=C/C(=O)Nc2ccc(O)cc2)C(C)(C)CCC1 [4-HPR, N-(4-hydroxyphenyl) retinamide] | significantly inhibited the growth; also recorded: significantly less | Apoptosis was induced | 1 | 149.7 ± 140.9 | statistically significantly fewer ovarian cancers | – | – | – | – | – | – | – | – |
| CCOC(=O)c1ccc(NC(=O)Nc2ccc3c(c2)C(C)(C)CC(C)(C)S3)cc1 [SHetA4] | significantly less | Apoptosis was induced | – | – | – | 76 | 59 | 67 | induced the formation of several branched tubular structures | completely eliminated cyst formation | 85 | did not induce topical irritancy | – |
| C/C(=C\c1ccc(C(=O)O)cc1)c1ccc2c(c1)C(C)(C)CCC2(C)C [TTNPB] | – | – | – | – | – | – | – | – | – | – | – | – | 10 |
